# Measured values as given in article PMC5107945, “Abscinazole-E3M, a practical inhibitor of abscisic acid 8′-hydroxylase for improving drought tolerance” (Scientific Reports, 2016).
# System: endogenous ABA level
# Assay: Endogenous ABA levels in maize
# Format: in vivo, Maize (cv. Gold rush)
# Settings: maize 2-week-old seedlings, roots dipped in 100 μM overnight, aerial shoot tissues
substance,measurement,value
abscinazole-E3M [(−)-6],Endogenous ABA levels,increased the endogenous ABA levels
